Laboratory results reported in PMC5761213 (Journal of Pharmaceutical Analysis, 2014).
Read-outs that look alike come from different tables or passages of the source.

Assays:
[1] = target: T1, CYP1A2 (Homo sapiens, UniProt P05177); assay: Effect of DMSO on CYP activity in human liver microsomes; format: in vitro ADME
T1 sequence (P05177 1-516): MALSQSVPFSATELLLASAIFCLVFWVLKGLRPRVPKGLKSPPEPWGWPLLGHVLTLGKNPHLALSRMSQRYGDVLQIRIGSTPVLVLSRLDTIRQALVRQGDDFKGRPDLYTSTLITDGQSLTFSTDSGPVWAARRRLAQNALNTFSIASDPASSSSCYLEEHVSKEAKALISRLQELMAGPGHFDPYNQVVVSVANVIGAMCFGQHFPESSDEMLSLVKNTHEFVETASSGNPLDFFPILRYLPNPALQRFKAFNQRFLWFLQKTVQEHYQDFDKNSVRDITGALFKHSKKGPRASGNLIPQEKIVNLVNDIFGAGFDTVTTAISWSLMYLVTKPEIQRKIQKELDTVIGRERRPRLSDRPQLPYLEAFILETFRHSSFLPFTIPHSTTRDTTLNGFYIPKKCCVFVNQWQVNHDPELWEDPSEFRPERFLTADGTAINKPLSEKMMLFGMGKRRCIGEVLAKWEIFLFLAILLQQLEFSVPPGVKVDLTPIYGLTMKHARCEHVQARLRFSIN

[2] = target: T2, CYP2C8 (Homo sapiens, UniProt P10632); assay: as above; format: in vitro ADME
T2 sequence (P10632 1-490): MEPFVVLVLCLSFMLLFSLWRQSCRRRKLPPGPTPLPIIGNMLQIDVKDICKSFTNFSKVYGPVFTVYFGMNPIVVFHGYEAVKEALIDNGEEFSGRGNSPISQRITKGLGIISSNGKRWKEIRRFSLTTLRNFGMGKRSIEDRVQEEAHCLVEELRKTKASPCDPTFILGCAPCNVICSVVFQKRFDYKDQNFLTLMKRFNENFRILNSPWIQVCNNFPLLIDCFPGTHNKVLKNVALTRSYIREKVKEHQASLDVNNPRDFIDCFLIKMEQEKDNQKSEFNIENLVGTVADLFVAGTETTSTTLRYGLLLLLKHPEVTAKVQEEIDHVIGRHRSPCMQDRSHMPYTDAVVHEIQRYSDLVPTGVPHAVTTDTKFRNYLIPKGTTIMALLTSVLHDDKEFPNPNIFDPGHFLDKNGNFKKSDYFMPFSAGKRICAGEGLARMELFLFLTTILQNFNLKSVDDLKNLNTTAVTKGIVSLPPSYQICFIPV

[3] = target: T3, CYP2C19 (Homo sapiens, UniProt P33261); assay: as above; format: in vitro ADME; conditions: for activity loss: percent decrease of metabolite formation
T3 sequence (P33261 whole entry): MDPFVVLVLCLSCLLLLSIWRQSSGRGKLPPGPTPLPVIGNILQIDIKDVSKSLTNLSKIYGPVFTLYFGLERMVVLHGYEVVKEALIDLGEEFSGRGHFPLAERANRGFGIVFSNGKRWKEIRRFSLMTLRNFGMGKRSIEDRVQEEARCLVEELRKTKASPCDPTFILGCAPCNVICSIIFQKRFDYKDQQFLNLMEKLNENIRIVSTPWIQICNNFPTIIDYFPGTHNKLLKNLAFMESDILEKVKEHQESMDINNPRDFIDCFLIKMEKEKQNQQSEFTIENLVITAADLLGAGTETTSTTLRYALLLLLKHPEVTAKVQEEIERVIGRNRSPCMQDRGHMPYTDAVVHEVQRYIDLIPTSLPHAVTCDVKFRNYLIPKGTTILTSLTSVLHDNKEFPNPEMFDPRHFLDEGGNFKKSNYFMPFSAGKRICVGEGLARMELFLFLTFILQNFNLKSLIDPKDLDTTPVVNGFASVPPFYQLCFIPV

[4] = target: CYP2D6 (Homo sapiens, UniProt P10635); assay: as above; format: in vitro ADME
CYP2D6, sequence (P10635 whole entry): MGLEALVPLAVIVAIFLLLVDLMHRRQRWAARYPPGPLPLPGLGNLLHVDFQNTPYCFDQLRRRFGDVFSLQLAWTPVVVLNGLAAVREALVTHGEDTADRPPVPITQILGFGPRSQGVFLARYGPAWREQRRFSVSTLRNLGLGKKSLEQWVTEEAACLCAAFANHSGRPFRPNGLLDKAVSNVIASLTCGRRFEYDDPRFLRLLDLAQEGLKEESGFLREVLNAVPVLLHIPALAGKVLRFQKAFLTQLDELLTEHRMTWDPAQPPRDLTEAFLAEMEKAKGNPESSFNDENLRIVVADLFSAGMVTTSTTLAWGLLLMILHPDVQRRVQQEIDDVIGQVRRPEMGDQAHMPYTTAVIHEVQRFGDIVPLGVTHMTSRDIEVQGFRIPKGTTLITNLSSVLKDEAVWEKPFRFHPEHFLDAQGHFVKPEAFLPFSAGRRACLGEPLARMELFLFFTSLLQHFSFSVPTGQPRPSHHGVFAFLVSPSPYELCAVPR

[5] = target: CYP3A4 (Homo sapiens, UniProt P08684); assay: as above; format: in vitro ADME; conditions: for activity loss: percent decrease of metabolite formation
CYP3A4, sequence (P08684 whole entry): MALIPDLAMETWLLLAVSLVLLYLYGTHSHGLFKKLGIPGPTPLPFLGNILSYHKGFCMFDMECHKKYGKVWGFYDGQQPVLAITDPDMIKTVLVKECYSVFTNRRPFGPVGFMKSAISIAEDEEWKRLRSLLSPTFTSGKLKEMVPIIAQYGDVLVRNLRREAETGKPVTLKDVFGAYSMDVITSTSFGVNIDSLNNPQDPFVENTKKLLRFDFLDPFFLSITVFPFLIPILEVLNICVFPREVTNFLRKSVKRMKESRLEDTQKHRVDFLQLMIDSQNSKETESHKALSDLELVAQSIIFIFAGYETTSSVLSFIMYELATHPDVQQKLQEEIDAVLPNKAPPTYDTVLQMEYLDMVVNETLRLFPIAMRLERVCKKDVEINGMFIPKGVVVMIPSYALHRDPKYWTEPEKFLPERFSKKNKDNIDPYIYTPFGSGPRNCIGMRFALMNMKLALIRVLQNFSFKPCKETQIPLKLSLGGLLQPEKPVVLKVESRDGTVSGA

[6] = target: T3, CYP2C19; assay: CYP inhibition assay in human liver microsomes, S-mephenytoin probe; format: in vitro ADME; conditions: IC50 calculated without SC, Single, pooled human liver microsomes, analyte-to-IS peak area ratio
[7] = target: T3, CYP2C19; conditions: literature value, cited from earlier work
[8] = 0.5% DMSO, concentration set for the cocktail assay

IC50 [6] [µM] | SMILES | reduction of metabolite formation ([1]; 0.1% DMSO) | CYP activity reduced by [1, 8] [%] | effect of DMSO on CYP activity ([1]; DMSO up to 1%) | reduction of metabolite formation ([2]; 0.1% DMSO) | CYP activity reduced by [2, 8] [%] | effect of DMSO on CYP activity ([2]; DMSO up to 1%) | reduction of metabolite formation ([3]; 0.1% DMSO) | activity loss ([3]; 0.5% DMSO (v/v)) [%] | CYP activity reduced by [3, 8] [%] | activity loss ([3]; 1% DMSO (v/v)) [%] | reduction of metabolite formation ([4]; 0.1% DMSO) | CYP activity reduced by [4, 8] [%] | activity loss ([4]; 1% DMSO (v/v), percent decrease of metabolite formation) [%] | reduction of metabolite formation ([5]; 0.1% DMSO) | activity loss ([5]; 0.5% DMSO (v/v)) [%] | activity loss ([5]; 1% DMSO (v/v)) [%] | IC50 ([7]; read-out: reported IC50) [µM] | Ki ([7]; read-out: reported Ki) [nM]
 | C[S+](C)[O-] [DMSO] | no significant reduction | 8 | not significantly affected | no significant reduction | 11 | not significantly affected | no significant reduction | 44.8 | 44 | 55.0 | no significant reduction | 12 | 27.8 | no significant reduction | 24.4 | 52.7 |  | 
7.19 | C=C(C)[C@@H]1CCC2=CC(=O)C[C@@H](C)[C@]2(C)C1 [Nootkatone] |  |  |  |  |  |  |  |  |  |  |  |  |  |  |  |  | 9.56 | 500
